Measurements published in ChEMBL document CHEMBL5325478, “The unique activity of saponin: Induction of cytotoxicity in HTLV-1 infected cells” (Bioorg Med Chem, 2023).
The source made the active and inactive calls. The rule behind the calls is not given here.

Legend:
HeLa [1] = assay: Induction of GAG aggregation in human HeLa cells transfected with Gag-Venus expression vector assessed as increase in number of bright GAG dots at 50 uM incubated for 2 hrs by immunostaining based confocal microscopic analysis; format: cell-based
HeLa [2] = assay: Induction of GAG aggregation in human HeLa cells transfected with Gag-FLAG expression vector assessed as increase in number of bright GAG dots at 50 uM incubated for 2 hrs by immunostaining based confocal microscopic analysis; format: cell-based
MT2 [3] = assay: Suppression of GAG protein cleavage in human MT-2 cells infected with HTLV-1 assessed as increase in intracellular Pr53 protein expression at 50 uM incubated for 3 days by immunoblot analysis; format: cell-based; conditions: time 3.0 day
MT2 [4] = assay: Suppression of GAG protein cleavage in human MT-2 cells infected with HTLV-1 assessed as reduction in intracellular p28 protein expression at 50 uM incubated for 3 days by immunoblot analysis; format: cell-based; conditions: time 3.0 day
MT2 [5] = assay: Cytotoxicity against human MT2 cells infected with HTLV-1 assessed as reduction in cell viability at 50 uM incubated for 3 days by MTT assay; format: functional, cell-based; conditions: time 3.0 day
Jurkat [6] = assay: Cytotoxicity against human Jurkat cells assessed as reduction in cell viability at 100 uM incubated for 3 days by MTT assay; format: functional, cell-based; conditions: time 3.0 day
MT2 [7] = assay: Induction of GAG aggregation in top cross section of human MT-2 cells infected with HTLV-1 assessed as ratio of cells with aggregated GAG at 50 uM incubated for 2 hrs by immunostaining based confocal microscopic analysis (reference value: 4.3%); format: cell-based
Jurkat [8] = assay: Cytotoxicity against human Jurkat cells assessed as reduction in cell viability at 50 uM incubated for 3 days by MTT assay; format: functional, cell-based; conditions: time 3.0 day
MT2 [9] = assay: Cytotoxicity against human MT2 cells infected with HTLV-1 assessed as reduction in cell viability at 100 uM incubated for 3 days by MTT assay; format: functional, cell-based; conditions: time 3.0 day
MT2 [10] = assay: Suppression of GAG protein cleavage in human MT-2 cells infected with HTLV-1 assessed as reduction in p19 protein expression in supernatant at 50 uM incubated for 3 days by immunoblot analysis; format: cell-based; conditions: time 3.0 day
HeLa [11] = assay: Upregulation of membrane localized GAG protein expression in human HeLa cells transfected with GAG-FLAG expression vector assessed as effect on E-cadherin protein expression at 50 uM by chemiluminescence based immunoblotting analysis; format: functional, cell-based
MT2 [12] = assay: Induction of GAG aggregation in middle cross section of human MT-2 cells infected with HTLV-1 assessed as ratio of cells with aggregated GAG at 50 uM incubated for 2 hrs by immunostaining based confocal microscopic analysis (reference value: 44.1%); format: cell-based
MT2 [13] = assay: Preferential cytotoxicity against human MT2 cells infected with HTLV-1 assessed as reduction in cell viability at 10 to 25 uM incubated for 3 days by MTT assay; format: functional, cell-based; conditions: dose 10-25 µM, time 3.0 day

SMILES	Activity (MT2 [5])	Activity (Jurkat [6])	Activity (Jurkat [8])	Activity (MT2 [9])	other results
CC1(C)CC[C@]2(C(=O)O)CC[C@]3(C)C(=CC[C@@H]4[C@@]5(C)CC[C@H](O[C@@H]6OC[C@H](O)[C@H](O)[C@H]6O[C@@H]6O[C@H](CO)[C@@H](O)[C@H](O)[C@H]6O)[C@@](C)(CO)[C@@H]5CC[C@]43C)[C@@H]2C1	Active	Active	inactive	Active	Activity (HeLa [1]): Active; Activity (HeLa [2]): Active; Activity (MT2 [3]): inactive; Activity (MT2 [4]): Active; Ratio (MT2 [7]): 7.3%; Activity (MT2 [10]): Active; Activity (HeLa [11]): inactive; Ratio (MT2 [12]): 41.3%
CC1(C)CC[C@]2(C(=O)O)CC[C@]3(C)C(=CC[C@@H]4[C@@]5(C)CC[C@H](O[C@@H]6OC[C@H](O)[C@H](O)[C@H]6O)[C@@](C)(CO)[C@@H]5CC[C@]43C)[C@@H]2C1	Active	Active	Active	Active	Activity (MT2 [13]): inactive
CC1(C)CC[C@]2(C(=O)O)CC[C@]3(C)C(=CC[C@@H]4[C@@]5(C)CC[C@H](O[C@@H]6OC[C@H](O)[C@H](O)[C@H]6O[C@@H]6OC[C@@H](O)[C@H](O)[C@H]6O)[C@@](C)(CO)[C@@H]5CC[C@]43C)[C@@H]2C1	Active	Active	Active	Active	Activity (MT2 [13]): inactive
CC1(C)CC[C@]2(C(=O)O[C@@H]3O[C@H](CO[C@@H]4O[C@H](CO)[C@@H](O)[C@H](O)[C@H]4O)[C@@H](O)[C@H](O)[C@H]3O)CC[C@]3(C)C(=CC[C@@H]4[C@@]5(C)CC[C@H](O[C@@H]6OC[C@H](O)[C@H](O)[C@H]6O)[C@@](C)(CO)[C@@H]5CC[C@]43C)[C@@H]2C1		inactive		inactive	
CC1(C)CC[C@]2(C(=O)O[C@@H]3O[C@H](CO[C@@H]4O[C@H](CO)[C@@H](O)[C@H](O)[C@H]4O)[C@@H](O)[C@H](O)[C@H]3O)CC[C@]3(C)C(=CC[C@@H]4[C@@]5(C)CC[C@H](O[C@@H]6OC[C@H](O)[C@H](O)[C@H]6O[C@@H]6OC[C@@H](O)[C@H](O)[C@H]6O)[C@@](C)(CO)[C@@H]5CC[C@]43C)[C@@H]2C1		inactive		inactive	
CC1(C)CC[C@]2(C(=O)O)CC[C@]3(C)C(=CC[C@@H]4[C@@]5(C)CC[C@H](O)[C@@](C)(CO)[C@@H]5CC[C@]43C)[C@@H]2C1	Active		Active		Activity (MT2 [3]): inactive; Activity (MT2 [4]): inactive; Activity (MT2 [10]): inactive
C[C@@H]1O[C@@H](O[C@H]2[C@H](O)[C@@H](O)[C@H](OC[C@H]3O[C@@H](OC(=O)[C@]45CCC(C)(C)C[C@H]4C4=CC[C@@H]6[C@@]7(C)CC[C@H](O[C@@H]8OC[C@H](O[C@@H]9O[C@@H](C)[C@H](O)[C@@H](O)[C@H]9O)[C@H](O)[C@H]8O[C@@H]8O[C@H](CO)[C@@H](O)[C@H](O)[C@H]8O)[C@@](C)(CO)[C@@H]7CC[C@@]6(C)[C@]4(C)CC5)[C@H](O)[C@@H](O)[C@@H]3O)O[C@@H]2CO)[C@H](O)[C@H](O)[C@H]1O		inactive		inactive	
C[C@@H]1O[C@@H](O[C@H]2[C@H](O[C@H]3CC[C@@]4(C)[C@@H](CC[C@]5(C)[C@@H]4CC=C4[C@@H]6CC(C)(C)CC[C@]6(C(=O)O[C@@H]6O[C@H](CO[C@@H]7O[C@H](CO)[C@@H](O[C@@H]8O[C@@H](C)[C@H](O)[C@@H](O)[C@H]8O)[C@H](O)[C@H]7O)[C@@H](O)[C@H](O)[C@H]6O)CC[C@]45C)[C@]3(C)CO)OC[C@H](O)[C@@H]2O)[C@H](O)[C@H](O)[C@H]1O		inactive		inactive	
